Laboratory results: patent US7179814B2, “Agents for controlling plant pests” (priority 1998, dated 2007)
Like-named read-outs stand apart in the source and are kept apart here.

Tests used:
[1] = tested on: Phaedon cochleariae larvae; test: Critical concentration test/root-systemic action, Phaedon cochleariae; format: in vivo; details: 72 h, 20.00 ppm in soil, root-systemic, 3 days after infestation, read-out: Kill in %
Experimental: (§1) To produce a suitable preparation of active compound, 1 part by weight of the active compound or the active compound mixture is mixed with the stated amounts of solvent and emulsifier, and the concentrate is diluted with water to the desired concentration.
(§2) The active compound preparation is mixed intimately with soil. Here, the concentration of the active compound in the preparation is almost irrelevant; only the amount by weight of active compound or active compound mixture per volume unit of soil, which is stated in ppm (mg/l), matters.
Soil is filled into 250 ml pots and these are planted with cabbage (Brassica oleracea). The active compound or the active compound combination can thus be taken up by the plant roots from the soil and transported into the leaves.
After 7 days, the leaves are populated with the abovementioned test animals. After a further 3 days, the kill in % is determined. 100% means that all test insects have been killed; 0% means that the number of insects which are still alive is the same as in the untreated control.

[2] = tested on: Diabrotica balteata larvae in soil; test: Critical concentration test/soil insects, Diabrotica balteata; format: in vivo; details: 20.0 ppm in soil, 7 days after infestation; for pest or weed control at 20 ppm: Diabrotica balteata, 168 h, read-out: Kill in %
Experimental: as §1, §2
Soil is filled into 0.5 l pots and these are allowed to stand at 20° C. Immediately after preparation, 5 pre-germinated maize corns are placed into each pot. After 2 days, the test insects are placed into the treated soil. After a further 7 days, the kill in % is determined. 100% means that all test insects have been killed; 0% means that none of the test insects have been killed.

green peach aphid = test: Myzus test (cabbage leaf dip); format: in vivo, Myzus (green peach aphid); details: concentration 0.1 %
Experimental: (§3) To produce a suitable preparation of active compound, 1 part by weight of an active compound or an active compound combination is mixed with the stated amounts of solvent and emulsifier, and the concentrate is diluted with water to the desired concentration.
Cabbage leaves (Brassica oleracea) which are heavily infested by the green peach aphid are treated by being dipped into the active compound preparation of the desired concentration.
After the desired period of time, the kill in % is determined. 100% means that all aphids have been killed; 0% means that none of the aphids have been killed.

Spodoptera frugiperda = test: Critical concentration test/soil insects, Spodoptera frugiperda; format: in vivo; details: 120 h, 20.00 ppm in soil, 5 days after infestation, read-out: Kill in %
Experimental: as §1, §2
Soil is filled into 0.5 l pots and these are allowed to stand at 20° C. Immediately after preparation, 3 pre-germinated maize corns are placed into each pot. After the maize corns have emerged, boring sleeves are placed onto the pots. 9 days after preparation, the maize is populated with the test insects. After a further 5 days, the kill in % is determined. 100% means that all test insects have been killed; 0% means that the number of insects which are still alive is the same as for the untreated control.

[3] = tested on: green rice leaf hopper (Nephotettix cincticeps); test: Nephotettix test (rice seedling dip); format: in vivo
Experimental: as §3
Rice seedlings (Oryza sativa) are treated by being dipped into the active compound preparation of the desired concentration and are populated with the green rice leaf hopper (Nephotettix cincticeps) while the leaves are still moist.
After the desired period of time, the kill in % is determined. 100% means that all the leaf hoppers have been killed; 0% means that none of the leaf hoppers have been killed.

Puccinia recondita = test: Puccinia test (wheat)/protective; format: in vivo; details: 62.5 g/ha, 10 days after inoculation
Experimental: (§4) To produce a suitable preparation of active compound, 1 part by weight of active compound or active compound combination is mixed with the stated amounts of solvent and emulsifier, and the concentrate is diluted with water to the desired concentration, or a commercial formulation of active compound or active compound combination is diluted with water to the desired concentration.
To test for protective activity, young plants are sprayed with the active compound preparation at the stated application rate. After the spray coating has dried on, the plants are sprayed with a conidia suspension of Puccinia recondita. The plants remain in an incubation cabin at 20° C. and 100% relative atmospheric humidity for 48 hours.
The plants are then placed in a greenhouse at a temperature of approximately 20° C. and a relative atmospheric humidity of 80% to promote the development of rust pustules.
(§5) Evaluation is carried out 10 days after the inoculation. 0% means an efficacy which corresponds to that of the control, whereas an efficacy of 100% means that no infection is observed.

Phytophthora infestans = format: in vivo; details: single active compound
Pyrenophora teres = Pyrenophora teres test (barley)/protective; format: in vivo; details: single active compound
Experimental: as §4
To test for protective activity, young plants are sprayed with the active compound preparation at the stated application rate. After the spray coating has dried on, the plants are sprayed with a conidia suspension of Pyrenophora teres. The plants remain in an incubation cabin at 20° C. and 100% relative atmospheric humidity for 48 hours.
The plants are then placed in a greenhouse at a temperature of approximately 20° C. and a relative atmospheric humidity of approximately 80%.
(§6) Evaluation is carried out 7 days after the inoculation. 0% means an efficacy which corresponds to that of the control, whereas an efficacy of 100% means that no infection is observed.

[4] = tested on: Erysiphe graminis f.sp. hordei; test: Erysiphe test (barley)/protective; format: in vivo; details: single active compound
Experimental: as §4
(§7) To test for protective activity, young plants are sprayed with the preparation of active compound at the stated application rate.
After the spray coating has dried on, the plants are dusted with spores of Erysiphe graminis f.sp. hordei.
(§8) The plants are placed in a greenhouse at a temperature of approximately 20° C. and a relative atmospheric humidity of approximately 80% to promote the development of mildew pustules.
as §6

Botrytis cinerea = test: Botrytis test (bean)/protective; format: in vivo; details: single active compound
Experimental: as §4
To test for protective activity, young plants are sprayed with the active compound preparation at the stated application rate. After the spray coating has dried on, 2 small pieces of agar colonized by Botrytis cinerea are placed onto each leaf. The inoculated plants are placed in a dark chamber at approximately 20° C. and 100% relative atmospheric humidity.
2 days after the inoculation, the size of the disease spots on the leaves is evaluated. 0% means an efficacy which corresponds to that of the control, whereas an efficacy of 100% means that no infection is observed.

Sphaerotheca fuliginea = test: Sphaerotheca test (cucumber)/protective; format: in vivo; details: 10 g/ha, single active compound, 10 days after inoculation
Experimental: as §4
To test for protective activity, young plants are sprayed with the commercial active compound preparation at the stated application rate. After the spray coating has dried on, the plants are inoculated with an aqueous spore suspension of Sphaerotheca fuliginea. The plants are then placed in a greenhouse at approximately 23° C. and a relative atmospheric humidity of approximately 70%.
as §5

[5] = tested on: caterpillars of the diamondback moth (Plutella xylostella); test: Plutella test (cabbage leaf dip); format: in vivo
Experimental: as §3
Cabbage leaves (Brassica oleracea) are treated by being dipped into the preparation of active compound of the desired concentration and are populated with caterpillars of the diamondback moth (Plutella xylostella) while the leaves are still moist.
After the desired period of time, the kill in % is determined 100% means that all caterpillars have been killed; 0% means that none of the caterpillars have been killed.

Fusarium culmorum = Fusarium culmorum test (wheat)/seed treatment; format: in vivo; details: 75 g/ha, dry seed dressing, approximately 3 weeks after sowing
Experimental: The active compounds are applied as a dry dressing. They are prepared by extending the active compound in question with ground minerals to give a finely pulverulent mixture which ensures even distribution on the surface of the seeds.
For the dressing, the infected seeds are shaken with the dressing in a closed glass bottle for 3 minutes.
2×100 seeds of the wheat are sown at a depth of 1 cm into standard soil, and the wheat is cultivated in a greenhouse at a temperature of approximately 18° C. and at a relative atmospheric humidity of approximately 95% in seed containers receiving 15 hours of light per day.
The evaluation of the plants for symptoms is carried out approximately 3 weeks after sowding. 0% means an efficacy which corresponds to that of the control, whereas an efficacy of 100% means that no infection is observed.

[6] = tested on: larvae of the mustard beetle (Phaedon cochleariae); test: Phaedon larvae test (cabbage leaf dip); format: in vivo
Experimental: as §3
Cabbage leaves (Brassica oleracea) are treated by being dipped into the preparation of active compound of the desired concentration and are populated with larvae of the mustard beetle (Phaedon cochleariae) while the leaves are still moist.
After the desired period of time, the kill in % is determined. 100% means that all beetle larvae have been killed; 0% means that none of the beetle larvae have been killed.

[7] = tested on: Heliothis virescens caterpillars; test: Heliothis virescens test (soya bean shoot dip); format: in vivo
Experimental: as §3
Soya bean shoots (Glycine max) are treated by being dipped into the active compound preparation of the desired concentration and are populated with Heliothis virescens caterpillars while the leaves are still moist.
After the desired period of time, the kill in % is determined. 100% means that all caterpillars have been killed; 0% means that none of the caterpillars have been killed.

[8] = tested on: Erysiphe graminis f.sp. tritici; test: Erysiphe test (wheat)/protective; format: in vivo; details: single active compound
Experimental: as §4, §7
After the spray coating has dried on, the plants are dusted with spores of Erysiphe graminis f.sp. tritici.
as §8, §6

[9] = 62.5 g/ha, 7 days after inoculation

Molecule: COCC(=O)N(c1c(C)cccc1C)C(C)C(=O)OC (centres unmarked) [metalaxyl]
- pest or weed control at 20 ppm [1]: 0%
- pest or weed control at 20 ppm [2]: 0%
- Kill in % (green peach aphid): 0%
- pest or weed control at 20 ppm (Spodoptera frugiperda): 0%
- Kill in % ([3]; concentration 0.1 %): 0%

Molecule: CCCC1COC(Cn2cncn2)(c2ccc(Cl)cc2Cl)O1 (centres unmarked) [propiconazole]
- pest or weed control at 20 ppm [1]: 0%
- Efficacy in % (Puccinia recondita): 75%
- pest or weed control at 20 ppm [2]: 0%
- Efficacy in % (Phytophthora infestans; 500 g/ha, 3 days after inoculation): 5%
- pest or weed control at 20 ppm (Spodoptera frugiperda): 0%
- Efficacy in % calculated/found (Pyrenophora teres; [9]): 0%
- Kill in % ([3]; concentration 0.004 %): 0%

Molecule: CC(C)(C)C(O)C(Oc1ccc(Cl)cc1)n1cncn1 (centres unmarked) [triadimenol]
- pest or weed control at 20 ppm [1]: 0%
- pest or weed control at 20 ppm [2]: 0%
- pest or weed control at 20 ppm (Spodoptera frugiperda): 0%
- Efficacy in % calculated/found (Pyrenophora teres; 18.75 g/ha): 40%

Molecule: CC(C)(C)C(O)C(Oc1ccc(-c2ccccc2)cc1)n1cncn1 (centres unmarked) [bitertanol]
- pest or weed control at 20 ppm [1]: 0%
- Efficacy in % calculated/found ([4]; 18.75 g/ha): 0%
- pest or weed control at 20 ppm [2]: 0%
- Efficacy in % (Botrytis cinerea; 500 g/ha): 30%
- pest or weed control at 20 ppm (Spodoptera frugiperda): 0%

Molecule: CC(C1CC1)C(O)(Cn1cncn1)c1ccc(Cl)cc1 (centres unmarked) [cyproconazole]
- Efficacy in % (Sphaerotheca fuliginea): 70%
- Kill in % ([5]; concentration 0.004 %): 0%
- Efficacy in % (Fusarium culmorum): 1%
- pest or weed control at 20 ppm [2]: 0%
- Kill in % ([6]; concentration 0.004 %): 10%
- Kill in % ([7]; concentration 0.004 %): 0%
- pest or weed control at 20 ppm (Spodoptera frugiperda): 0%

Molecule: CO/N=C(/C(=O)OC)c1ccccc1COc1ccccc1C [kresoxim-methyl]
- Efficacy in % calculated/found ([8]; 18.75 g/ha): 43%
- Efficacy in % calculated/found [8, 9]: 79%
- Efficacy in % calculated/found [4, 9]: 0%
- pest or weed control at 20 ppm [2]: 0%
- Kill in % ([6]; concentration 0.1 %): 0%

Molecule: CO/C=C(/C(=O)OC)c1ccccc1Oc1cc(Oc2ccccc2C#N)ncn1 [azoxystrobin]
- pest or weed control at 20 ppm [1]: 0%
- pest or weed control at 20 ppm [2]: 0%
- Efficacy in % (Phytophthora infestans; 10 g/ha): 74%
- Efficacy in % (Botrytis cinerea; 40 g/ha): 42%
- pest or weed control at 20 ppm (Spodoptera frugiperda): 0%
- Efficacy in % calculated/found (Pyrenophora teres; 18.75 g/ha): 0%

Molecule: N#Cc1c[nH]cc1-c1cccc(Cl)c1Cl [fenpiclonil]
- pest or weed control at 20 ppm [1]: 0%
- Kill in % ([5]; concentration 0.1 %): 0%
- pest or weed control at 20 ppm [2]: 0%
- Kill in % (green peach aphid): 0%
- pest or weed control at 20 ppm (Spodoptera frugiperda): 0%

Molecule: N#Cc1c[nH]cc1-c1cccc2c1OC(F)(F)O2 [fludioxonil]
- Efficacy in % (Fusarium culmorum): 0%
- pest or weed control at 20 ppm [2]: 0%
- Efficacy in % (Botrytis cinerea; 10 g/ha, 2 days after inoculation): 40%
- Kill in % ([3]; concentration 0.02 %): 0%

Molecule: CN(C)C(=S)SSC(=S)N(C)C [TMTD]
- Kill in % ([5]; concentration 0.1 %): 0%
- pest or weed control at 20 ppm [2]: 0%
- Kill in % ([3]; concentration 0.1 %): 0%

Molecule: CC(C)(C)C(O)(CCc1ccc(Cl)cc1)Cn1cncn1 (centres unmarked) [tebuconazole]
- pest or weed control at 20 ppm [1]: 0%
- pest or weed control at 20 ppm [2]: 0%
- pest or weed control at 20 ppm (Spodoptera frugiperda): 0%
- Efficacy in % calculated/found (Pyrenophora teres; [9]): 50%

Molecule: Cc1ccc(C(C)NC(=O)C(NC(=O)OC(C)C)C(C)C)cc1 (racemic) [SZX722]
- Efficacy in % (Phytophthora infestans; 10 g/ha): 88%

Molecule: O=C(Nc1ccccc1)N(Cc1ccc(Cl)cc1)C1CCCC1 [pencycuron]
- Kill in % ([5]; concentration 0.1 %): 0%
- pest or weed control at 20 ppm [2]: 0%
- Kill in % (green peach aphid): 0%
- Kill in % ([3]; concentration 0.1 %): 0%

Molecule: tolylfluanid
- Kill in % ([5]; concentration 0.02 %): 0%
- Kill in % [2]: 0%
- Efficacy in % (Phytophthora infestans; 50 g/ha): 34%
- Kill in % ([7]; concentration 0.02 %): 0%
- Kill in % ([3]; concentration 0.02 %): 0%
